According to PubChem BioAssay AID652002 (Sanford-Burnham Center for Chemical Genomics, 2013):
The source made the active and inactive calls. No rule for the calls is given here.

Key:
[1] = molecular target: NB7+Caspase-8; test: TRAIL sensitizers in caspase-8 expressing neuroblastoma cells, dose response, NB7 cells plus caspase-8, luminescence, panel (AID 652002); settings: NB7 neuroblastoma +caspase-8, TRAIL sensitization, luminescence viability, with TRAIL
[2] = as above; settings: NB7 neuroblastoma +caspase-8, no TRAIL, compound-alone cytotoxicity counter-screen, luminescence viability, NB7+Caspase-8
[3] = molecular target: Tumor necrosis factor receptor superfamily member 10B (Homo sapiens) (UniProt O14763); test: as above; settings: NB7 neuroblastoma +caspase-8, TRAIL sensitization, luminescence viability; NB7+Caspase-8; with TRAIL, mean of runs
[4] = run 1, single replicate panel EC50
[5] = run 2, single replicate panel EC50

Chain of Tumor necrosis factor receptor superfamily member 10B (Homo sapiens) (O14763 whole entry, looked up): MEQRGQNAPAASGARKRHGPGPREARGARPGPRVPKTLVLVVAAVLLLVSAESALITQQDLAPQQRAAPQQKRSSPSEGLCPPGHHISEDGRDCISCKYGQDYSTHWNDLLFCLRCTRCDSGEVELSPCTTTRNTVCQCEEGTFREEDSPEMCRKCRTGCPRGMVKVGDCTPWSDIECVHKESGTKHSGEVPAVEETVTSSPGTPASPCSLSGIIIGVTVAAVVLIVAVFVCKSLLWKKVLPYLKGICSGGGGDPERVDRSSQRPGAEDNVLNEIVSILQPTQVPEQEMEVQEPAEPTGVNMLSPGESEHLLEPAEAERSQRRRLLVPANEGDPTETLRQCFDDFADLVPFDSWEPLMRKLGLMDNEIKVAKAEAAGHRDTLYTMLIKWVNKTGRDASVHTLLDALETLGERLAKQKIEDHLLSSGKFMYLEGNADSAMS

Structure (SMILES)	EC50 [1, 4] [µM]	EC50 [1, 5] [µM]	EC50 ([2]; mean of runs)	EC50 [2, 4] [µM]	EC50 [2, 5] [µM]	EC50 [3]
O=C1Cc2c(-c3ccccc3)cc(-c3cccc(Cl)c3)nc2-c2ccccc2N1	> 12.5	> 12.5	> 12.5 µM (inactive)	> 12.5	> 12.5	> 12.5 µM (inactive)
CCOc1ccc(-c2cc(C(=O)N3CCC(C)CC3)c3ccccc3n2)cc1	> 12.5	11.5	> 12.5 µM (inactive)	> 12.5	> 12.5	inactive
Cc1ccc(NC(=O)c2ccccc2O)cc1	> 12.5	10.5	inactive	11.1	7.77	inactive
Cc1cc2nc(-c3ccc(SCC(=O)Nc4nccs4)nc3)[nH]c2cc1C	5.16	> 12.5	> 12.5 µM (inactive)	> 12.5	> 12.5	inactive
O=Nc1ccc(NO)c2ccccc12	> 12.5	6.54	> 12.5 µM (inactive)	> 12.5	> 12.5	inactive
Cc1nc2cc(NC(=O)Nc3cccc([N+](=O)[O-])c3)ccc2n1C	> 12.5	6.56	> 12.5 µM (inactive)	> 12.5	> 12.5	inactive
O=C(c1cnc(Cl)c(Cl)c1)N1CCN(S(=O)(=O)c2ccc3ccccc3c2)CC1	> 12.5	> 12.5	> 12.5 µM (inactive)	> 12.5	> 12.5	> 12.5 µM (inactive)
O=C1CCCCC1Sc1nnc(-c2ccc3c(c2)OCO3)o1 (stereo not given)	> 12.5	> 12.5	inactive	> 12.5	11	> 12.5 µM (inactive)
Cn1nnc(NC(=O)c2ccc(C(C)(C)C)cc2)n1	> 12.5	5.01	inactive	> 12.5	5.83	inactive
CN(C)S(=O)(=O)c1ccc(C(=O)Nc2nnc(SCC(=O)NCC3CCCO3)s2)cc1 (stereo not given)	> 12.5	> 12.5	> 12.5 µM (inactive)	> 12.5	> 12.5	> 12.5 µM (inactive)
CSc1nc(N)n2nc(-c3ccc(Cl)cc3)cc2n1	> 12.5	> 12.5	> 12.5 µM (inactive)	> 12.5	> 12.5	> 12.5 µM (inactive)
CCOc1ccc(NC(=O)Nc2cccs2)cc1	> 12.5	6.86	inactive	10.7	6.47	inactive
Clc1nc(Cl)c2ncn(-c3ccccc3)c2n1	> 12.5	> 12.5	> 12.5 µM (inactive)	> 12.5	> 12.5	> 12.5 µM (inactive)
C#Cc1ccc(NC(=O)C2(C)CCN2C(=O)Cc2ccc(C(C)C)cc2)cc1 (stereo not given)	> 12.5	> 12.5	inactive	> 12.5	8.26	> 12.5 µM (inactive)
CC(=O)c1ccc(NC(=O)Nc2cccnc2)cc1	> 12.5	9.72	inactive	11.4	10.2	inactive
COCCNC(=O)c1cc(-c2ccc(-c3ccccc3)cc2)nc2ccccc12	> 12.5	6.28	inactive	> 12.5	2.09	inactive
O=C(Nc1ccc2[nH]ccc2c1)c1cccs1	3.97	5.19	inactive	7.12	4.71	inactive
Fc1ccc(-c2cnn3c(-c4ccncc4)ccnc23)cc1	> 12.5	> 12.5	> 12.5 µM (inactive)	> 12.5	> 12.5	> 12.5 µM (inactive)
COCCCn1c(C(=O)Nc2ccc3c(c2)OCO3)cc2c(=O)n3cccc(C)c3nc21	> 12.5	> 12.5	> 12.5 µM (inactive)	> 12.5	> 12.5	> 12.5 µM (inactive)
CC(C)C[C@H](NC(=O)c1nc[nH]c1C(=O)N[C@@H](CC(C)C)C(=O)OCc1ccccc1)C(=O)OCc1ccccc1	> 12.5	> 12.5	> 12.5 µM (inactive)	> 12.5	> 12.5	> 12.5 µM (inactive)
